Legend:
[1] = tested on: primary rat motor neurons injured with glutamate; assay: Primary motor neuron culture survival after glutamate injury (in vitro ALS model); format: cell-based
Experimental: The aim of this study was to study the effect of CR591 on primary motor neuron culture from rat spinal cord (SC) injured by glutamate exposure (a well validated in vitro ALS model and model of motor neuron diseases).
Rat SC motor neurons were cultured as described by Martinou et al., Neuron. 1992 April; 8(4):737-44 and Wang et al., Hum Mol Genet. 2013 Dec. 1; 22(23):4706-19. Briefly, pregnant female rats (Wistar, Janvier labs) of 14 days gestation were killed by cervical dislocation. […] Cells were then centrifuged at 180 g for 10 min at +4° C. on a layer of BSA (3.5%) in L15 medium. […] The medium was changed every day.
The following conditions were assessed: • Control • + glutamate (5 μM 20 mn then 48 h) • + glutamate (5 μM 20 mn then 48 h)+CR591 1 pmol/L • + glutamate (5 μM 20 mn then 48 h)+CR591 10 pmol/L • + glutamate (5 μM 20 mn then 48 h)+CR591 100 pmol/L • + glutamate (5 μM 20 mn then 48 h)+CR591 1 nmol/L • + glutamate (5 μM 20 mn then 48 h)+CR591 10 nmol/L • + glutamate (5 μM 20 mn then 48 h)+CR591 100 nmol/L • + glutamate (5 μM 20 mn then 48 h)+CR591 1 μmol/L • + glutamate (5 μM 20 mn then 48 h)+CR591 10 μmol/L […]
For each condition, 6 wells were assessed, 30 pictures per well were taken using ImageXpress (Molecular Devices) with 20× magnification, to assess motor neuron survival (MAP-2). […]

[2] = tested on: MAG positive cells (OL) in primary cocultures of central neurons and oligodendrocytes; assay: In vitro MS (myelination) model, MAG evaluation at day 18; format: cell-based, rat; settings: 18 days of treatment, bell shape curve
Experimental: (§1) A reproducible in vitro myelination model based on primary cocultures of central neurons and oligodendrocytes culturing in 96-well plate is used and adapted to high throughput screening.
(§2) Neurons/oligodendrocytes were cultured as previously described by Charles et al., 2000. PNAS 97 7585-7590.
Briefly, pregnant Wistar female rats of 17 days gestation were killed by cervical dislocation (Janvier Labs, France) and the foetuses removed from the uterus. The forebrains were removed and placed in ice-cold medium of Leibovitz (L15; Pan Biotech, Germany) containing 2% of Penicillin-Streptomycin (Batch 1451013, PanBiotech) and 1% of bovine serum albumin (BSA) (Batch K180713, Pan Biotech). Cortexes were dissociated by trypsinisation for 20 min at 37° C., with Trypsin EDTA 1X (Batch 7310713, PanBiotech). The reaction was stopped by the addition of Dulbecco's modified Eagle's medium (DMEM) (Batch 9710913, PanBiotech) containing DNAase I grade II at 0.1 mg/mL (Batch H131108, PanBiotech) and 10% of foetal calf serum (Batch 41Q7218K, Invitrogen, France). Cells were then mechanically dissociated by 3 passages through a 10 mL pipette. Cells were centrifuged at 180×g for 10 min at 4° C. temperature on a layer of BSA (3.5%) in L15 medium. The supernatant was discarded and cells of the pellet were re-suspended in DMEM containing 10% of FCS. […] The supernatant was discarded and cells of pellet were re-suspended in a culture medium consisting of Neurobasal (Batch 1625353, Invitrogen) supplemented with 2% of B27 (Batch 1618508, Invitrogen), 2 mM of L-glutamine (Batch 6620314, PanBiotech), 2% of PS solution, 1% of foetal calf serum (FCS) and 10 ng/mL of platelet-derived growth factor (PDGF-AA) (Batch H131205, PanBiotech). […]
(§3) The immunolabeled cultures were automatically examined with ImageXpress (Molecular Devices) equipped with a LED at ×20 magnification. […] Number of A2B5 positive cells and number of MAG positive cells were automatically analyzed by using Custom module editor (Molecular Devices). […] All values were expressed as mean+/−SEM (s.e.mean) of the 6 wells. […]

[3] = tested on: Human MRC-5 cell line derived from normal lung tissue; assay: Cytotoxicity test, MTS cell growth inhibition assay; format: cell-based; settings: MRC-5 cells, 72 h incubation, 8 concentrations, FIG. 1a
Experimental: (§4) Human MRC-5 cell line derived from normal lung tissue and human HCT-116 colorectal carcinoma were obtained from the American Type Culture Collection (ATCC, Rockville, Md.). Primary Human Umbilical Vein Endothelial Cells (HUVEC) isolated from the vein of the umbilical cord were obtained from Promocell (Germany). Cell lines were cultured according to the supplier's instructions. Human HCT-116 cells were grown in Gibco McCoy's 5A supplemented with 10% fetal calf serum (FCS) and 1% glutamine. Human MRC-5 cells were grown in DMEM supplemented with 10% fetal calf serum (FCS) and 1% glutamine. HUVECs were grown in Endothelial Cell Growth Medium 2 which is low-serum (2% V/V) media optimized for the cultivation of endothelial cells from large blood vessels.
(§5) Cells were counted using a Vi-cell XR (Beckman Coulter) and their viability assessed by 0.25% trypan blue dye exclusion. They were tested for the presence of mycoplasma before experiments with the Mycoplasma PCR Detection Kit (Applied Biological Materials Inc., Canada) in accordance with the manufacturer instructions and only mycoplasma-free cells were used for further investigations.
(§6) Cell lines were maintained at 37° C. in a humidified atmosphere containing 5% CO2. Cell growth inhibition was determined by an MTS assay according to the manufacturer's instructions (Promega, Madison, Wis., USA). […] After 24 h of culture, the cells were treated with the compound CR591 of example 1 at 8 different final concentrations. Each concentration was obtained from serial dilutions in culture medium starting from the stock solution. Control cells were treated with the vehicle. Experiments were performed in triplicate.
(§7) After 72 h of incubation, 20 μL of CellTiter 96® AQueous One Solution Reagent was added for 2 h before recording absorbance 490 nm with a spectrophotometric plate reader. The dose-response curves were plotted with Graph Prism software and the IC50 values were calculated using the Graph Prism software from polynomial curves (four or five-parameter logistic equations).

[4] = tested on: human HCT-116 colorectal carcinoma; assay: as above; format: cell-based; settings: HCT-116 cells, 72 h incubation, 8 concentrations, FIG. 1b
Experimental: as §4, §5, §6, §7

[5] = tested on: Primary Human Umbilical Vein Endothelial Cells (HUVEC); assay: as above; format: cell-based; settings: 72 h incubation, 8 concentrations, FIG. 1c
Experimental: as §4, §5, §6, §7

[6] = tested on: OPC (precursor cells of oligodendrocytes) in primary cocultures of central neurons and oligodendrocytes; assay: In vitro MS (myelination) model, OPC number (A2B5 positive cells) at day 12; format: cell-based, rat; settings: 12 days treatment
Experimental: as §1, §2
Briefly, pregnant Wistar female rats of 17 days gestation were killed by cervical dislocation (Janvier Labs, France) and the foetuses removed from the uterus. The forebrains were removed and placed in ice-cold medium of Leibovitz (L15; Pan Biotech, Germany) containing 2% of Penicillin-Streptomycin (Batch 1451013, PanBiotech) and 1% of bovine serum albumin (BSA) (Batch K180713, Pan Biotech). Cortexes were dissociated by trypsinisation for 20 min at 37° C., with Trypsin EDTA 1X (Batch 7310713, PanBiotech). The reaction was stopped by the addition of Dulbecco's modified Eagle's medium (DMEM) (Batch 9710913, PanBiotech) containing DNAase I grade II at 0.1 mg/mL (Batch H131108, PanBiotech) and 10% of foetal calf serum (Batch 41Q7218K, Invitrogen, France). […]
as §3

| SMILES | motor neuron death ([1]; glutamate 5 μM for 20 min, read 48 h later, versus control = 100%) | concentration of maximal effect on MAG positive cells / myelination [2] | number of MAG positive cells ([2]; FIG. 3a) | myelination of neurons by OL (area of MAG expression) ([2]; FIG. 3b) | toxicity (cell growth inhibition) [3] | toxicity (cell growth inhibition) [4] | toxicity (cell growth inhibition) [5] | protective effect of motor neuron (survival, MAP-2) ([1]; added 1 h before glutamate (5 μM 20 min, then 48 h), between 1 nM and 10 nM, FIG. 4) | OPC number (A2B5 positive cells) ([6]; 1 pmol/L to 10 μmol/L, FIG. 2) | total number of OPCs at the highest doses ([6]; highest doses, inhibition of proliferation or toxic effect) |
| --- | --- | --- | --- | --- | --- | --- | --- | --- | --- | --- |
| N[C@@H](CCC(=O)O)C(=O)O [Glutamate, glutamate, reference compound] | > 30% | – | – | – | – | – | – | – | – | – |
| CC1=C(CO)C(=O)O[C@@H]([C@@H](C)[C@H]2CCC3C4C[C@H](SC[C@H](N)C(=O)O)[C@]5(O)[C@@H](O)C=CC(=O)[C@]5(C)C4CC[C@@]32C)C1 (stereo partly shown) [CR591] | – | 1 nM | able to increase the number of MAG positive cells | significantly improved the myelination of neurons by OL | does not show any toxicity | does not show any toxicity | does not show any toxicity | moderate and significant protective effect | did not show any significant increase | decrease of the total number of OPCs was observed |

Reference: patent US20210087222A1, “COMPOUNDS FOR TREATING NEURODEGENERATIVE DISORDERS” (ETHNODYNE, priority 2017, published 2021)
